Source: patent US20040204493A1, “Carbonic anhydrase inhibitors as drugs to eradicate Helicobacter pylori in the mammalian, including human, stomach” (priority 2003, published 2004)
Like-named read-outs stand apart in the source and are kept apart here.

Legend:
[1] = test system: H. pylori; assay: Survival of wildtype H. pylori in acid, in vitro; type: cell-based, Helicobacter pylori
Excerpt: (§1) H. pylori bacteria which could not produce α-carbonic anhydrase gene (deletion mutants) were unable to survive in acid and were incapable of raising their periplasmic pH even with wildtype urease activity levels. […] This is illustrated in FIG. 1 of the appended drawings.
Therefore, it is now understood in accordance with the present invention that it is the combination of urease activation, expression of UreI and the periplasmic carbonic anhydrase that allows gastric colonization by H. pylori. […] Thus, targeting the acid biology of this pathogen provides specific H. pylori therapy. It is recognized in accordance with the present invention that within these three targets, a safe drug is only available for carbonic anhydrase.

[2] = test system: H. pylori; assay: Periplasmic pH buffering of H. pylori in acid with urea, fluorescent pH sensitive dye BCECF (FIG. 1); type: cell-based, Helicobacter pylori
Procedure: as §1
Specifically, H. pylori was incubated in acid along with a fluorescent pH sensitive dye, BCECF, (bis-carboxy ethylcarboxy fluorescein) and then urea was added at 5 mM which is substantially the gastric juice concentration. In part A of the figure the increase in periplasmic pH is shown by the increased fluorescence of the dye indicating viable H. pylori bacteria.

[3] = target: T1, urease (Helicobacter pylori, UniProt P69996); assay: Urease activity of H. pylori under in vitro treatment; type: cell-based; details: wildtype H. pylori
T1 construct: endogenous in cells
T1 sequence (P69996 whole entry): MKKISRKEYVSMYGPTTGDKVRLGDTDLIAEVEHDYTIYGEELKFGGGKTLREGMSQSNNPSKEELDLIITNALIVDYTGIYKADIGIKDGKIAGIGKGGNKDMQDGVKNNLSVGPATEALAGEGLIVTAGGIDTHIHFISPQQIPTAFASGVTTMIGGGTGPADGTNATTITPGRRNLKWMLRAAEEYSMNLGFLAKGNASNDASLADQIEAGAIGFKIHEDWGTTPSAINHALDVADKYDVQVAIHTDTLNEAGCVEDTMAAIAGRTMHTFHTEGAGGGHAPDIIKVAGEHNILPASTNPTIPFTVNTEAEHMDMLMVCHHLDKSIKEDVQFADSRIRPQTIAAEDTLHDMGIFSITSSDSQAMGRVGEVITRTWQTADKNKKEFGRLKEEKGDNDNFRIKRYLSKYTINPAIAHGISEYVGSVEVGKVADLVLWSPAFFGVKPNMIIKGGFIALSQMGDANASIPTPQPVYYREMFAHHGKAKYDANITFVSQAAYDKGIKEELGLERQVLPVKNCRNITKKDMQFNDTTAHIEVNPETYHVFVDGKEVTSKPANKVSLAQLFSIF
T1 sequence (P14916 whole entry, further chain): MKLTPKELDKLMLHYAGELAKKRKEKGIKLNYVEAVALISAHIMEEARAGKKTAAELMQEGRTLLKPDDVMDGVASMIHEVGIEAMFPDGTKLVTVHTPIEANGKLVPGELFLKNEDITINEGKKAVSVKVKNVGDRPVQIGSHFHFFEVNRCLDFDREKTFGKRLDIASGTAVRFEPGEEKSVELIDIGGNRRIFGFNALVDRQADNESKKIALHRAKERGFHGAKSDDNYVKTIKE
Excerpt: as §1

[4] = test system: basal acid secretion and stimulated acid secretion; details: humans, cited from earlier work
[5] = cited from earlier work

## CC(=O)Nc1nnc(S(N)(=O)=O)s1 [acetazolamide]
[1]; in acid, drug present
  loss of survival of H. pylori in acid: > 3 log order of magnitude
[1]; wildtype H. pylori, in vitro treatment
  bacterial ability to survive in acid: inhibited the bacterial ability to survive in acid
[2]; normal H. pylori in acid, urea 5 mM, drug added to the medium, FIG. 1 part C
  periplasmic buffering of pH (BCECF fluorescence): no periplasmic buffering of pH detected
[2]; wildtype H. pylori in acid, in vitro treatment
  bacterial ability to buffer its periplasm: inhibited
[3]
  effect on urease activity: without affecting urease activity
[4]; histamine stimulated
  reduction of histamine stimulated acid secretion (MAO): 83.2%
[4]
  reduction of basal acid output (BAO): 92.3%
  return of normal acid secretion following cessation of treatment: 3-5
  time of treatment to maximal acid inhibition: 3 to 5 days
[5]; 2 years after treatment, treated for 30 days (Valean et al.)
  relapse rate: 6.2%
[5]; 3 week treatment, ulcer healing (Erdei et al.)
  relapse rate: 11%
[5]; 118 gastric ulcer patients, oral, after 3-5 days
  patients with intragastric pain abolished: 94%
[5]; after 15 days of treatment
  patients with complete ulcer healing (endoscopic evaluation): 87%
[5]; after 30 days of treatment
  patients with complete ulcer healing (endoscopic evaluation): 94%
